From patent US20150140123A1, “Protein expression analyses for identifying genotoxic compounds” (Merck Patent GmbH, priority 2012, published 2015)
Like-named read-outs stand apart in the source and are kept apart here.

Test system: HepG2 cells
Experiment: High content imaging cytotoxicity parameters: selected cell count per valid field (SCC) and CMFDA cytoplasm average intensity
Procedure: HepG2 cells (Order No. HB-8065, Lot. 58483209, ATCC, Manassas, USA) were cultured in DMEM/F12 with L-Glutamine and 15 mM Hepes supplemented with 10% (v/v) FBS, 1% (v/v) penicillin (10 kU/ml)/streptomycin (10 mg/ml) solution, 0.1% (v/v) gentamicin (50 mg/ml), and 1 mM sodium pyruvate at 37° C. and 5% CO2 in culture flasks. Depending on the experiment, an appropriate number of cells were seeded onto plates after detaching of the cells using trypsin and cells were cultured at 37° C. and 5% CO2 for 24 h prior to treatment. All experiments were performed three times with cells of passages 4-20.
Cells were seeded onto black Poly-D-Lysin coated 96-well-plates (BD Biocoat, Franklin Lakes, USA) (0.02×10^6 cells/well) and left 24 h for adherence and then treated with test compounds at a maximum concentration of 1 mM which is recommended by the ICH S2(R1) guideline (EMA, 2011). For each compound, nine concentrations were tested with 2-fold serial dilutions. DMSO 1% (v/v) served as vehicle control for the experiments. The treatment procedure was different for direct-genotoxic and pro-genotoxic compounds. The treatment for direct genotoxic compounds was ongoing and was repeated daily over 48 h. Pro-genotoxic compounds were incubated for 6 h together with metabolic activation system (to limit the cytotoxic effect of the S9-mixture). After this period, cells were washed with cell media followed by 18-repeated daily over 48 h. The metabolic activation system used consisted of the following components and concentrations: 8 mM MgCl2, 32.8 mM KCl, 12 mM NADPH, 124 mM phosphate buffer and 2500 pmol/ml cytochrome P450 (CYP) content in the pre-mixture corresponding to 2.4 mM MgCl2, 9.8 mM KCl, 3.6 mM NADPH, 37.2 mM phosphate buffer, and 750 pmol/ml CYP as final concentrations after dilution 1:3.33 with cell culture media.
After treatment, cells were rinsed with PBS (Gibco Invitrogen, Karlsruhe, Germany), and then stained with 10 μM CellTracker Green 5-Chloromethylfluorescein Diacetate (CMFDA) (Invitrogen, Karlsruhe, Germany) in cell culture media for 30 min. CMFDA is per se non-fluorescent and is hydrolyzed by esterase in viable cells to a fluorescent-dye. The reaction with thiol groups leads to a cell-impermeable fluorescent-dye-adduct. The esterase activity can be used as an indicator for viability of cells (Papadopoulos et al., 1994, J Immunol Methods 177, 101-11). Afterwards, cells were washed with PBS and fixed with 3.7% Formaldehyde (Sigma-Aldrich, Taufkirchen, Germany) in PBS for 20 min. After that, cells were washed with PBS and blocked and permeabilized with 2% donkey serum (Millipore, Schwalbach, Germany) and 0.25% Triton X-100 (Sigma-Aldrich, Taufkirchen, Germany) in PBS for 30 min. Primary antibodies were diluted in Blocking/Permeabilization solution to final concentrations of 4 μg/ml anti-p-Chk1 (Ser345) goat polyclonal antibody IgG (santa cruz, Santa Cruz, USA), 4 μg/ml anti-p-ATM (Ser1981) mouse monoclonal antibody IgG1K (Millipore, Schwalbach, Germany) and added to the cells. After incubation for 16-18 h, cells were washed with 0.05% Tween 20 (Calbiochem, Darmstadt, Germany) in PBS, and the secondary antibody/16 μM Hoechst staining solution Blocking/Permeabilization solution was added. Secondary antibodies were diluted 1:400 (Alexa Fluor 555 donkey anti-goat, Alexa Fluor 647 donkey anti-mouse, Invitrogen, Karlsruhe, Germany). After an incubation of 1 h, followed by two additional washing steps with 0.05% Tween 20, cells were washed with PBS and finally PBS was added and cells were measured.
Image acquisition was performed on the ArrayScan VTI HCS Reader (Cellomics, Pittsburgh, USA) using a 20× objective. To detect enough cells, 50 images starting at the middle of each well were gathered.
• Channel 1: selected cell count per valid field • Channel 2: CMFDA cytoplasm average intensity • Channel 3: p-Chk1 (Ser345) nucleus average intensity • Channel 4: p-ATM (Ser1981) nucleus average intensity

[1] = HepG2 cells, 48 h, CMFDA cytoplasm average intensity, with rat liver S9 (+S9)
[2] = HepG2 cells, 48 h, CMFDA cytoplasm average intensity, without metabolic activation (−S9)
[3] = HepG2 cells, 48 h, selected cell count per valid field, with rat liver S9 (+S9)
[4] = HepG2 cells, 48 h, selected cell count per valid field, without metabolic activation (−S9)

## CCc1cc(C(N)=S)ccn1 [Ethionamide]
human, 48 h
  CMFDA +S9 highest conc. <50% cytotox. over control: 1000 µM
  CMFDA −S9 highest conc. <50% cytotox. over control: 1000 µM
  SCC +S9 highest conc. <50% cytotox. over control: 1000 µM
  SCC −S9 highest conc. <50% cytotox. over control: 1000 µM

## ClC(Cl)(Cl)C(Cl)(Cl)Cl [Hexachloroethane]
[1]
  CMFDA +S9 highest conc. <50% cytotox. over control: 1000 µM
[2]
  CMFDA −S9 highest conc. <50% cytotox. over control: 1000 µM
[3]
  SCC +S9 highest conc. <50% cytotox. over control: 1000 µM
[4]
  SCC −S9 highest conc. <50% cytotox. over control: 1000 µM

## CC(C)[C@@H]1CC[C@@H](C)C[C@H]1O [D,L-menthol]
  CMFDA +S9 highest conc. <50% cytotox. over control: 1000 µM
  CMFDA −S9 highest conc. <50% cytotox. over control: 1000 µM
  SCC +S9 highest conc. <50% cytotox. over control: 1000 µM
  SCC −S9 highest conc. <50% cytotox. over control: 1000 µM

## CC[C@H]1OC(=O)[C@H](C)[C@@H](O[C@H]2C[C@@](C)(OC)[C@@H](O)[C@H](C)O2)[C@H](C)[C@@H](O[C@@H]2O[C@H](C)C[C@H](N(C)C)[C@H]2O)[C@](C)(O)C[C@@H](C)C(=O)[C@H](C)[C@@H](O)[C@]1(C)O [Erythromycin stearate]
human, 48 h
  CMFDA −S9 highest conc. <50% cytotox. over control: 62.5 µM
  SCC −S9 highest conc. <50% cytotox. over control: 31.25 µM

## CC(=O)Nc1ccc2c(c1)Cc1ccccc1-2 [2-Acetylaminofluorene]
[1]
  CMFDA +S9 highest conc. <50% cytotox. over control: 1000 µM
[2]
  CMFDA −S9 highest conc. <50% cytotox. over control: 1000 µM
[3]
  SCC +S9 highest conc. <50% cytotox. over control: 1000 µM
[4]
  SCC −S9 highest conc. <50% cytotox. over control: 1000 µM

## Aflatoxin B1
  CMFDA +S9 highest conc. <50% cytotox. over control: 500 µM
  CMFDA −S9 highest conc. <50% cytotox. over control: 500 µM
  SCC +S9 highest conc. <50% cytotox. over control: 500 µM
  SCC −S9 highest conc. <50% cytotox. over control: 31.25 µM

## COc1cc(/C=C/C(=O)CC(=O)/C=C/c2ccc(O)c(OC)c2)ccc1O [Curcumin]
human, 48 h
  CMFDA +S9 highest conc. <50% cytotox. over control: 125 µM
  CMFDA −S9 highest conc. <50% cytotox. over control: 31.25 µM
  SCC +S9 highest conc. <50% cytotox. over control: 125 µM
  SCC −S9 highest conc. <50% cytotox. over control: 31.25 µM

## CC(C)(C)c1cc(O)ccc1O [Tertiary-butylhydroquinone]
human, 48 h
  CMFDA +S9 highest conc. <50% cytotox. over control: 1000 µM
  CMFDA −S9 highest conc. <50% cytotox. over control: 125 µM
  SCC +S9 highest conc. <50% cytotox. over control: 1000 µM
  SCC −S9 highest conc. <50% cytotox. over control: 125 µM

## NC(N)=O [Urea]
[1]
  CMFDA +S9 highest conc. <50% cytotox. over control: 1000 µM
[2]
  CMFDA −S9 highest conc. <50% cytotox. over control: 1000 µM
[3]
  SCC +S9 highest conc. <50% cytotox. over control: 1000 µM
[4]
  SCC −S9 highest conc. <50% cytotox. over control: 1000 µM

## CCCCC(CC)COC(=O)c1ccccc1C(=O)OCC(CC)CCCC (stereo not shown) [Di-(2-ethylhexyl)phthalate]
human
  CMFDA +S9 highest conc. <50% cytotox. over control: 1000 µM
  CMFDA −S9 highest conc. <50% cytotox. over control: 1000 µM
  SCC +S9 highest conc. <50% cytotox. over control: 1000 µM
  SCC −S9 highest conc. <50% cytotox. over control: 1000 µM

## c1ccncc1 [Pyridine]
human
  CMFDA +S9 highest conc. <50% cytotox. over control: 1000 µM
  CMFDA −S9 highest conc. <50% cytotox. over control: 1000 µM
  SCC +S9 highest conc. <50% cytotox. over control: 1000 µM
  SCC −S9 highest conc. <50% cytotox. over control: 1000 µM

## O=P1(N(CCCl)CCCl)NCCCO1 (stereo not shown) [Cyclophosphamide]
human
  CMFDA +S9 highest conc. <50% cytotox. over control: 62.5 µM
  CMFDA −S9 highest conc. <50% cytotox. over control: 1000 µM
  SCC +S9 highest conc. <50% cytotox. over control: 1000 µM
  SCC −S9 highest conc. <50% cytotox. over control: 1000 µM

## NC(=S)N(C1CCCCC1)C1CCCCC1 [N,N-dicyclohexyl thiourea]
human, 48 h
  CMFDA +S9 highest conc. <50% cytotox. over control: 500 µM
  CMFDA −S9 highest conc. <50% cytotox. over control: 1000 µM
  SCC +S9 highest conc. <50% cytotox. over control: 1000 µM
  SCC −S9 highest conc. <50% cytotox. over control: 500 µM

## CC(C)C=O [Isobutyraldehyde]
human, 48 h
  CMFDA +S9 highest conc. <50% cytotox. over control: 1000 µM
  CMFDA −S9 highest conc. <50% cytotox. over control: 1000 µM
  SCC +S9 highest conc. <50% cytotox. over control: 1000 µM
  SCC −S9 highest conc. <50% cytotox. over control: 1000 µM

## Cn1c(N)nc2c3cccnc3ccc21 [IQ, 2-Amino-3methylimidazo[4,5-f]quinoline]
[1]
  CMFDA +S9 highest conc. <50% cytotox. over control: 125 µM
[2]
  CMFDA −S9 highest conc. <50% cytotox. over control: 1000 µM
[3]
  SCC +S9 highest conc. <50% cytotox. over control: 125 µM
[4]
  SCC −S9 highest conc. <50% cytotox. over control: 1000 µM
